Read-outs that look alike come from different tables or passages of the source.
Experiments:
[1] = target: ENPP1 on MDA-MB-231 cells (Homo sapiens (Human), UniProt P22413); assay: Inhibition of ENPP1 hydrolysis of AMP p-nitrophenyl ester on MDA-MB-231 cells (Assay 2); type: cell-based; conditions: pNP-AMP 0.25 mM, MDA-MB-231 cells, 37° C. 3 h, KI,app from IC50 via Cheng/Prusoff
Experimental: Inhibition of ENPP1 Hydrolysis of AMP p-Nitrophenyl Ester on MDA-MB-231 Cells (Assay 2)
ENPP1 is normally expressed on the human metastatic breast cancer cell line MDA-MB-231. Hydrolysis of the p-nitrophenyl ester of AMP (pNP-AMP), an isostere of ATP, is selectively catalyzed by ENPP1 in the supernatant of MDA-MB-231 cell cultures. Inhibition of the hydrolysis of pNP-AMP by MDA-MB-231 at pH 7.4 and 37° C. is a good model of physiologically relevant activity of membrane-bound ENPP1 at disease-relevant expression levels.
MDA-MB-231 cells were harvested using TypLE Express Enzyme digestion and suspended in 100 μL of Leibovitz's L-15 Medium, 20% FBS, seeding the cells in a 96-well assay plate with 4.5×10^4 cells/well. Cells were incubated at 37 C with 1% CO2 for 24 h. In a separate dilution plate, 2× of top dose of compound was prepared in phenol-red free 1640 medium without FBS and then 1:3 serial diluted in the same medium. The cell culture medium of L15 medium was aspirated carefully and cells were washed with PBS once, and 50 μL per well of test compound or DMSO blank are added to the assay plate. Substrate mix (50 μL; 0.5 mM pNP-AMP in phenol-red free 1640 media without FBS) was added for a pNP-AMP final concentration of 0.25 mM. The system was incubated at 37° C. for 3 h.

ENPP-1 ECD = ENPP-1 ECD (Homo sapiens (Human), UniProt P22413); assay: Inhibition of ENPP1 hydrolysis of 2′,3′-cGAMP (Assay 1); conditions: AMP-Glo luminescence, KI from IC50 via Cheng/Prusoff
Experimental: Test compounds were plated in a 3× dilution scheme in a 384 well plate.

[2] = read-out: Assay 2 KI,app values (class)
[3] = Assay 1 KI values (class), 2,3-cGAMP 24 μM
[4] = read-out: Assay 1 KI, 2,3-cGAMP 24 μM
[5] = read-out: Assay 1 KI values (class), 2,3-cGAMP 24 μM

ENPP-1 ECD, sequence (P22413 98-925): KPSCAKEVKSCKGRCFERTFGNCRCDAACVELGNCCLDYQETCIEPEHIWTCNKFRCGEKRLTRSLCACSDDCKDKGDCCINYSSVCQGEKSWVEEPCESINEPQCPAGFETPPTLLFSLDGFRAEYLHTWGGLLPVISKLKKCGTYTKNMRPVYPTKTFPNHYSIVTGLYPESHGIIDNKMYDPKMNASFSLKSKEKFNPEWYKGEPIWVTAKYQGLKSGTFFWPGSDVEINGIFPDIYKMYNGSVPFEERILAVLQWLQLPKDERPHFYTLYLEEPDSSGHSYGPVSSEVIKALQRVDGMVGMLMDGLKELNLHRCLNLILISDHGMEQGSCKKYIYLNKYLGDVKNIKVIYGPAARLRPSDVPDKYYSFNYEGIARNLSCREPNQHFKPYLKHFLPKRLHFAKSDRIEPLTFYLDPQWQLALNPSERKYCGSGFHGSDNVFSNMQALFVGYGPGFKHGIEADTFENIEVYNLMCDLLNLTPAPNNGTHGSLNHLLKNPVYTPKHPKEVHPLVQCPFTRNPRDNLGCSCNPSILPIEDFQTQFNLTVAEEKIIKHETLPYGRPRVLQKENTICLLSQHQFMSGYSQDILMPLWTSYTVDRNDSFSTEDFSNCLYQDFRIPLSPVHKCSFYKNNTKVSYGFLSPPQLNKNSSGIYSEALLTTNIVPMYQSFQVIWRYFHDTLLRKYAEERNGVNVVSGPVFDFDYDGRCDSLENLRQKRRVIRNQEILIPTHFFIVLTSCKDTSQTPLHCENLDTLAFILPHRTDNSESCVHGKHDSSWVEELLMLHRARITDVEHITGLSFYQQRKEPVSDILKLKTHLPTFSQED
ENPP1 on MDA-MB-231 cells, sequence (P22413 whole entry): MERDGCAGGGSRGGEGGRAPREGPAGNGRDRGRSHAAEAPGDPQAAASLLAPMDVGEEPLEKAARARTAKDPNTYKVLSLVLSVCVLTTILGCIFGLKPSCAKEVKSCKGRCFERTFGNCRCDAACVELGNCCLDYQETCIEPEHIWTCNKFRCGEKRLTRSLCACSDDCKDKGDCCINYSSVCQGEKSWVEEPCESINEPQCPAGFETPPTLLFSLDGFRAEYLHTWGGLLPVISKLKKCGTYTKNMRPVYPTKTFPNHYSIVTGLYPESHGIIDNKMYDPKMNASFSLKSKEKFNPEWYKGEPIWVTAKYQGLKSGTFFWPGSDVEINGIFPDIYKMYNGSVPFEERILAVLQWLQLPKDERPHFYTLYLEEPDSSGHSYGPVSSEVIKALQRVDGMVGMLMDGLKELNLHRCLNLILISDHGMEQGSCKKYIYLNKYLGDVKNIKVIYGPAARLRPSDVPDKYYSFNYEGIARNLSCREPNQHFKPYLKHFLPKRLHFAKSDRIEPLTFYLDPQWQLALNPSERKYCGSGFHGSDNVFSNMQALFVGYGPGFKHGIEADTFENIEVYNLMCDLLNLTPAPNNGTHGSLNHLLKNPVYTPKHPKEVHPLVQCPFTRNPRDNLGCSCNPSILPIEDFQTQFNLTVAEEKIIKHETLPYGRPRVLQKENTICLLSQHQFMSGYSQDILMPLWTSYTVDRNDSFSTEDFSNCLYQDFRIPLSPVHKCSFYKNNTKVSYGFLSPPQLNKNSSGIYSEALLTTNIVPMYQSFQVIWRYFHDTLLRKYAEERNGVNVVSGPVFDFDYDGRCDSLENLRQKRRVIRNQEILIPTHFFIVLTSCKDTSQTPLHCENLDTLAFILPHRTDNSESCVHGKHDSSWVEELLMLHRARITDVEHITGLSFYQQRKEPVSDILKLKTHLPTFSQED

| Compound | Ki ([1]; read-out: Assay 2 KI, app) [nM] | Ki [1, 2] [nM] | Ki (ENPP-1 ECD; [3]) [nM] | Ki (ENPP-1 ECD; [4]) [nM] | Ki (ENPP-1 ECD; [5]) [nM] |
| --- | --- | --- | --- | --- | --- |
| Cc1nc2ncnn2c(N(C)C)c1Cc1ccc(S(=N)(=O)CCC(=O)O)cc1 (stereo not drawn) [Compound 72, 3-[(4-{[7-(dimethylamino)-5-methyl-[1,2,4]triazolo[1,5-a]pyrimidin-6-yl]methyl}phenyl)(imino)oxo-λ^6-sulfanyl]propanoic acid] | 0.769 | < 10 | < 3 | 0.0285 | – |
| Cc1nc2ncnn2c(N(C)C)c1Cc1ccc(S(=N)(=O)CCN)cc1 (stereo not drawn) [Compound 73, (2-aminoethyl)(4-{[7-(dimethylamino)-5-methyl-[1,2,4]triazolo[1,5-a]pyrimidin-6-yl]methyl}phenyl)imino-λ^6-sulfanone] | 7.7 | < 10 | < 3 | – | – |
| CN(C)c1c(Cc2ccc(S(C)(=N)=O)cc2)c(Cl)nc2ncnn12 (stereo not drawn) [Compound 74, (4-{[5-chloro-7-(dimethylamino)-[1,2,4]triazolo[1,5-a]pyrimidin-6-yl]methyl}phenyl)(imino)methyl-λ^6-sulfanone] | 7.13 | < 10 | < 3 | – | – |
| CN(C)c1c(Cc2ccc([S@@](C)(=N)=O)cc2)c(Cl)nc2ncnn12 [Compound 74a] | 1.34 | < 10 | – | 0.0523 | < 3 |
| Cc1cc2ncnn2c(N2CCCCC2)c1Cc1ccc(S(C)(=N)=O)cc1 (stereo not drawn) [Compound 76, imino(methyl)(4-{[7-methyl-5-(piperidin-1-yl)-[1,2,4]triazolo[1,5-a]pyridin-6-yl]methyl}phenyl)-λ^6-sulfanone] | 38.6 | > 10 | < 3 | – | – |
| CS(=N)(=O)c1ccc(Cc2c(Cl)nc3ncnn3c2N2CCCC2)cc1 (stereo not drawn) [Compound 78, (4-{[5-chloro-7-(pyrrolidin-1-yl)-[1,2,4]triazolo[1,5-a]pyrimidin-6-yl]methyl}phenyl)(imino)methyl-λ^6-sulfanone] | 24.1 | > 10 | < 3 | – | – |
| Cc1c(Cc2ccc(S(C)(=N)=O)cc2)c(N(C)C)n2ccnc2c1C#N (stereo not drawn) [Compound 80, 5-(dimethylamino)-6-({4-[imino(methyl)oxo-λ^6-sulfanyl]phenyl}methyl)-7-methylimidazo[1,2-a]pyridine-8-carbonitrile] | 2.54 | < 10 | < 3 | 0.0443 | – |
| Cc1c(Cc2ccc([S@@](C)(=N)=O)cc2)c(N(C)C)n2ccnc2c1C#N [Compound 80a] | 0.589 | < 10 | – | 0.016 | < 3 |
| COc1nc2ncnn2c(N(C)C)c1Cc1ccc([S@@](C)(=N)=O)cc1 [Compound 88a] | 0.222 | – | – | 0.00586 | – |

Next, values leading:

| Ki ([1]; read-out: Assay 2 KI, app) [nM] | Ki [1, 2] [nM] | Ki (ENPP-1 ECD; [3]) [nM] | Ki (ENPP-1 ECD; [4]) [nM] | Ki (ENPP-1 ECD; [5]) [nM] | Compound |
| --- | --- | --- | --- | --- | --- |
| 0.505 | – | – | 0.00881 | – | Cc1nc2ncnn2c(N(C)C)c1Cc1ccc([S@@](=N)(=O)CCC(=O)O)cc1 [Compound 72a] |
| 36.7 | > 10 | < 3 | – | – | Cc1cc2ncnn2c(N2CCCC2)c1Cc1ccc(S(C)(=N)=O)cc1 (stereo not drawn) [Compound 75, imino(methyl)(4-{[7-methyl-5-(pyrrolidin-1-yl)-[1,2,4]triazolo[1,5-a]pyridin-6-yl]methyl}phenyl)-λ^6-sulfanone] |
| 74.4 | > 10 | < 3 | 2.86 | – | CN(C)c1c(Cc2ccc(S(C)(=N)=O)cc2)c(C#N)nc2ncnn12 (stereo not drawn) [Compound 79, 7-(dimethylamino)-6-({4-[imino(methyl)oxo-λ^6-sulfanyl]phenyl}methyl)-[1,2,4]triazolo[1,5-a]pyrimidine-5-carbonitrile] |
| 13.5 | > 10 | < 3 | 0.817 | – | Cc1nc2ncnn2c(N2CCCC2)c1Cc1ccc(B(O)O)cc1 [Compound 81, (4-{[5-methyl-7-(pyrrolidin-1-yl)-[1,2,4]triazolo[1,5-a]pyrimidin-6-yl]methyl}phenyl)boronic acid] |
| 69.9 | > 10 | < 3 | 1.16 | – | Cc1nc2ncnn2c(N2CCCC2)c1Cc1ccc(C(=O)NO)cc1 [Compound 82, N-hydroxy-4-{[5-methyl-7-(pyrrolidin-1-yl)-[1,2,4]triazolo[1,5-a]pyrimidin-6-yl]methyl}benzamide] |
| 0.724 | – | – | 0.0287 | – | Cc1c(Cc2ccc(S(C)(=N)=O)cc2)c(N(C)C)n2ncnc2c1C#N (stereo not drawn) [Compound 85, 5-(dimethylamino)-6-({4-[imino(methyl)oxo-λ^6-sulfanyl]phenyl}methyl)-7-methyl-[1,2,4]triazolo[1,5-a]pyridine-8-carbonitrile] |
| 0.447 | – | – | 0.0184 | – | Cc1cc2ncnn2c(N(C)C)c1Cc1ccc(S(=N)(=O)CCC(=O)O)cc1 (stereo not drawn) [Compound 87, 3-[(4-{[5-(dimethylamino)-7-methyl-[1,2,4]triazolo[1,5-a]pyridin-6-yl]methyl}phenyl)(imino)oxo-λ^6-sulfanyl]propanoic acid] |
